Where “and” joins values, the source holds several entries; their conditions need not be identical. Identical values can stand only once. Entries after “also recorded” stand apart in the source; their conditions may differ.
Experiments:
[1] = target: CNR1 (Homo sapiens (Human), UniProt P21554); assay: cAMP Hunter antagonist assay, CB1; format: cell-based; settings: cAMP antagonist mode
Protocol: Cannabinoid receptors belong to G-protein-coupled receptors which may transduce intracellular agonist-antagonist responses regulating in part levels of cAMP within the cells. Fenchone derivates were assayed using Eurofins proprietary assays (i.e. CB1-Antagonist Catalog #86-0007P-2277AN; CB2-Antagonist Catalog ref. 86-0007P-2818AN; CB1-Agonist; Catalog #86-0007P-2277AG; CB2-Agonist-Catalog #86-0007P-2818AG).
Briefly, for antagonist activity, cAMP Hunter™ Gi cell lines overexpress naturally Gi coupled, wild type GPCRs and are designed to detect inhibition of intracellular cAMP production in response to agonist stimulation of the receptor. These cell lines are designed to be used in conjunction with the HitHunter® cAMP Assay Detection Kit.
Similarly, for agonist activity, cAMP Hunter™ Gs cell lines overexpress naturally Gs coupled, wild type GPCRs and are designed to detect increases in intracellular cAMP levels in response to agonist stimulation of the receptor. These cell lines are designed to be used in conjunction with the HitHunter® cAMP Assay Detection Kit. […]

[2] = test system: zymosan-induced hyperalgesia; assay: zymosan mouse paw inflammatory pain model, von Frey test, with or without CB2 antagonists; format: in vivo; settings: for von Frey pain effect: SR144528 experiment, 25 mg/kg IP
Protocol: To induce inflammation, 40 μL of 1.5% (w/v) zymosan A (Sigma) suspended in 0.9% saline was injected into the sub-planter surface of the right hind paw of the mice. Immediately after zymosan injection, antagonists were injected intraperitoneally (IP) and after 30 minutes, the fenchone derivatives dissolved in 0.1 mL vehicle containing ethanol:Cremophore:saline at a ratio of 1:1:18 were injected. Control mice were injected with the vehicle only. After 2, 6, and 24 hrs, paw swelling, and pain perception were measured.
Specifically, measurement of Oedema Formation was assessed by monitoring paw swelling via calibrated calipers (0.01 mm), 6 and 24 hrs following injections of zymosan alone and/or the test compounds. Pain hyperalgesia was evaluated by the paw withdrawal von Frey test at 6, and 24 h following injections of zymosan and/or the test compounds. […] In this study, only 1.4-60 g corresponding to 4.17 to 5.88 log of force was used, to test the mouse sensitivity to a mechanical stimulus on the swollen paw. The measurements were performed in a quiet room. Before paw pain measurements, the animals were held for 10 sec. The trained investigator applied the filament to the central area of the hind paw with gradual increasing size. The test consisted of poking the middle of the hind paw to provoke a flexion reflex followed by a clear flinch response after paw withdrawal. Each one of the von Frey filaments was applied for approximately 3-4 s to induce the end-point reflex. The first testing was done by using the force filament of 1.4 g. If there was no withdrawal response, the next higher stimulus was tried. The mechanical threshold force (in grams (g)) was defined as the lowest force imposed by two von Frey monofilaments of various sizes, required to produce a paw retraction. The untreated left hind paw served as a control.

[3] = test system: Human OA derived articular chondrocytes; assay: cAMP-Glo EC50 in chondrocyte cell cultures; format: cell-based; settings: 45 min treatment
From the text: All human cell cultures were obtained from total knee replacement surgery (TKA) in accordance with Hadassah Medical Center Institutional Review Board approval and in accordance with the Helsinki Declaration ethical principles for medical research involving human subjects (Study #0488-09). Following written informed consent, articular cartilage was obtained from the knee joints of OA patients undergoing total knee arthroplasty (n=51, mean age 71 years, mean body mass index 31 kg/m2, Kellgren and Lawrence score ranging 3-4). Articular cartilage tissue was dissected, chondrocytes isolated and plated as described by Bar Oz et al., (10). Isolated chondrocytes were passaged to passage 3, and plated in 96 well plates with DMEM media containing 10% FCS, 1% Penicillin-streptomycin, 1% Amphotericin B. Cultures were maintained in standard incubation conditions (37° C., 5% CO2) until confluence. All reagents for cell culture were purchased for Biological Industries (Israel, Beit-Haemek Kibutz), unless otherwise indicated. […] Luminescence was measured and a standard curve was simultaneously run per plate. […] Using this ΔRLU value and the linear equation generated from the standard curve, the cAMP concentration was calculated. […]

[4] = target: hCB2R (Homo sapiens (Human), UniProt P34972); assay: [35S]GTPγS binding assay, hCB2R CHO cell membranes; format: biochemical; settings: for functional activity at hCB2R (agonist / inverse agonist): [35S]GTPγS binding; for EC50: [35S]GTPγS binding to hCB2R, two independent experiments in triplicate; for E(max) %: percentage of HU-308 response at 1 μM
Sequence of hCB2R (P34972 whole entry): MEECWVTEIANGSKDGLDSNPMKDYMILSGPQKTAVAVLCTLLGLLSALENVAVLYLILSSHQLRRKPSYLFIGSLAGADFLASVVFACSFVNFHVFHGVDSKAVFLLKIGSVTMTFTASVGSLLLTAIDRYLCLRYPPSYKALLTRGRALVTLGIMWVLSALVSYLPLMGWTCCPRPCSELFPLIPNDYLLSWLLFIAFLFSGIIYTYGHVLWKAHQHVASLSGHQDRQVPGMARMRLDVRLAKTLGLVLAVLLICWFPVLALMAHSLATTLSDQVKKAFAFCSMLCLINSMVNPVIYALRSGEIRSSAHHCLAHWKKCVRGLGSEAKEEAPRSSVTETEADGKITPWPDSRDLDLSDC
Protocol: Functional Characterization.
The method used for measuring agonist-stimulated binding of [^35S]GTPγS was based on a described protocol. The assays were carried out with GTPγS assay buffer (50 mM Tris HCl (pH 7.4), 0.2 mM EGTA, 9 mM MgCl2, 150 mM NaCl, 1 mg/ml BSA). Briefly, membranes (5 μg protein) were incubated in assay buffer containing 100 μM GDP, 0.05 nM [^35S]GTPγS, test compounds at various concentrations in siliconized glass tubes. Bound ligand was separated from free ligand by vacuum filtration. Nonspecific binding was determined using 10 μM GTPS. Basal binding was assayed in the absence of the ligand and in the presence of GDP.

Row | SMILES | antagonistic effect CNR1 [1] | von Frey pain effect [2] | EC50 in chondrocytes compared with HU308 [3] | functional activity at hCB2R (agonist / inverse agonist) [4] | EC50 [4] | E(max) % [4] [%] | von Frey pain phenotype ([2]; 25 mg/kg IP alone, AM630 experiment)
1 | CCCCCc1cc(OC)c(C2(O)C3(C)CCC(C3)C2(C)C)c(OC)c1 (single isomer, unassigned) [Compound 1b, 2-(2,6′-dimethoxy-4′-pentylphenyl)-1,3,3-trimethylbicyclo[2.2.1]heptan-2-ol] | no detectable antagonistic effect | insignificant | low EC50; also recorded: superior EC50 over HU308 | agonist | 11.6 nM | 65.1 | –
2 | CCCCCCC(C)(C)c1cc(OC)c([C@]2(O)C3(C)CCC(C3)C2(C)C)c(OC)c1 (stereo partly shown) [Compound 1d, 2-(2,6′-dimethoxy-4′-(2″-methyloctan-2″-yl)phenyl)-1,3,3-trimethyl-bicyclo[2.2.1]heptan-2-ol] | no detectable antagonistic effect | insignificant | low EC50; also recorded: superior EC50 over HU308 | agonist | 2.6 nM and 2.59 nM | 89.63 | significant affect
